Reference: ChEMBL document CHEMBL3885861, “Open TG-GATES”

Organism: Rattus norvegicus
Assay: Open TG-GATES - Regimen: Daily Repeat
Assay type: toxicity, organism-based, Sprague-Dawley
Parameters: regimen Daily Repeat, gender Male, age 6 weeks
Conditions: in vivo, po, route gavage; for APTT / Bas / Eos / Fbg / Hb / Ht / Lym / MCH / MCHC / MCV / Mono / Neu / PT / Plat / RBC / Ret / WBC: tissue Blood; for KIDNEY_L / KIDNEY_R / KIDNEY_TOTAL: tissue Kidney; for LIVER: tissue Liver; for A/G / ALP / ALT / AST / BUN / CRE / Ca / Cl / DBIL / GLC / IP / K / LDH / Na / PL / RALB / TBIL / TC / TG / TP / gamma-GTP: tissue Plasma
[1] = 300 mg/kg, 72 h, dose level Middle, time 3 day
[2] = 300 mg/kg, […], dose level Middle, time 7 day
[3] = 300 mg/kg, […], dose level Middle, time 14 day
[4] = 300 mg/kg, […], dose level Middle, time 28 day
[5] = 1000 mg/kg, 72 h, dose level High, time 3 day
[6] = 1000 mg/kg, […], dose level High, time 7 day
[7] = 1000 mg/kg, […], dose level High, time 14 day
[8] = 1000 mg/kg, […], dose level High, time 28 day

## CCN1CCCC1CNC(=O)c1cc(S(N)(=O)=O)ccc1OC (centres undefined) [SULPIRIDE]
[1]
  TERMINAL_BW: 234.7 g
  APTT: 16.7 s
  Bas: 0%
  Eos: 1%
  Fbg: 278.2 mg/dL
  Hb: 13.4 g/dL
  Ht: 40.9%
  Lym: 78.8%
  MCH: 20.6 pg
  MCHC: 32.8%
  MCV: 62.7 fL
  Mono: 3.4%
  Neu: 16.2%
  PT: 13.1 s
  Plat: 118.8 x10_4/uL
  RBC: 653.4 x10_4/ul
  Ret: 6.5%
  WBC: 94.6 x10_2/uL
  KIDNEY_L: 1 g
  KIDNEY_R: 1 g
  KIDNEY_TOTAL: 2.1 g
  LIVER: 11.7 g
  A/G: 0.9
  ALP: 1582.2 IU/L
  ALT: 44 IU/L
  AST: 65.8 IU/L
  BUN: 14.6 mg/dL
  CRE: 0.2 mg/dL
  Ca: 11.1 mg/dL
  Cl: 103.2 meq/L
  DBIL: 0.01 mg/dL
  GLC: 182 mg/dL
  IP: 8 mg/dL
  K: 4.4 meq/L
  LDH: 78.2 IU/L
  Na: 139.6 meq/L
  PL: 147.8 mg/dL
  RALB: 2.7 g/dL
  TBIL: 0.056 mg/dL
  TC: 78.4 mg/dL
  TG: 92.8 mg/dL
  TP: 5.7 g/dL
  gamma-GTP: 1 IU/L
[2]
  TERMINAL_BW: 265.3 g
  APTT: 16.9 s
  Bas: 0%
  Eos: 1%
  Fbg: 297.2 mg/dL
  Hb: 13.8 g/dL
  Ht: 41.8%
  Lym: 81.8%
  MCH: 20 pg
  MCHC: 33%
  MCV: 60.4 fL
  Mono: 2.2%
  Neu: 14.4%
  PT: 13.1 s
  Plat: 123.9 x10_4/uL
  RBC: 692.4 x10_4/ul
  Ret: 4.9%
  WBC: 113 x10_2/uL
  KIDNEY_L: 1.1 g
  KIDNEY_R: 1.1 g
  KIDNEY_TOTAL: 2.1 g
  LIVER: 12.5 g
  A/G: 0.8
  ALP: 1497.6 IU/L
  ALT: 46.8 IU/L
  AST: 65.8 IU/L
  BUN: 17 mg/dL
  CRE: 0.2 mg/dL
  Ca: 11 mg/dL
  Cl: 104.2 meq/L
  DBIL: 0.01 mg/dL
  GLC: 182.2 mg/dL
  IP: 8.1 mg/dL
  K: 4.2 meq/L
  LDH: 54.4 IU/L
  Na: 141.6 meq/L
  PL: 143 mg/dL
  RALB: 2.6 g/dL
  TBIL: 0.052 mg/dL
  TC: 70.4 mg/dL
  TG: 114.4 mg/dL
  TP: 5.8 g/dL
  gamma-GTP: 1 IU/L
[3]
  TERMINAL_BW: 329.3 g
  APTT: 16.8 s
  Bas: 0.2%
  Eos: 1%
  Fbg: 295.2 mg/dL
  Hb: 14.7 g/dL
  Ht: 44.1%
  Lym: 78.4%
  MCH: 20 pg
  MCHC: 33.4%
  MCV: 60 fL
  Mono: 2.2%
  Neu: 17.2%
  PT: 13.2 s
  Plat: 121.1 x10_4/uL
  RBC: 736 x10_4/ul
  Ret: 4.1%
  WBC: 102.3 x10_2/uL
  KIDNEY_L: 1.3 g
  KIDNEY_R: 1.2 g
  KIDNEY_TOTAL: 2.5 g
  LIVER: 14.2 g
  A/G: 0.9
  ALP: 1350 IU/L
  ALT: 37.4 IU/L
  AST: 62.8 IU/L
  BUN: 16 mg/dL
  CRE: 0.2 mg/dL
  Ca: 11.1 mg/dL
  Cl: 103 meq/L
  DBIL: 0.014 mg/dL
  GLC: 188.8 mg/dL
  IP: 7.8 mg/dL
  K: 3.9 meq/L
  LDH: 50.6 IU/L
  Na: 140.6 meq/L
  PL: 145.2 mg/dL
  RALB: 2.7 g/dL
  TBIL: 0.052 mg/dL
  TC: 71.8 mg/dL
  TG: 109 mg/dL
  TP: 5.8 g/dL
  gamma-GTP: 1 IU/L
[4]
  TERMINAL_BW: 375.2 g
  APTT: 17.4 s
  Bas: 0.2%
  Eos: 1.2%
  Fbg: 265 mg/dL
  Hb: 15.8 g/dL
  Ht: 45.8%
  Lym: 76.4%
  MCH: 19.4 pg
  MCHC: 34.5%
  MCV: 56.1 fL
  Mono: 1.8%
  Neu: 20%
  PT: 13.4 s
  Plat: 114.4 x10_4/uL
  RBC: 817 x10_4/ul
  Ret: 2.1%
  WBC: 109.3 x10_2/uL
  KIDNEY_L: 1.3 g
  KIDNEY_R: 1.4 g
  KIDNEY_TOTAL: 2.7 g
  LIVER: 14 g
  A/G: 0.8
  ALP: 1073.6 IU/L
  ALT: 43.8 IU/L
  AST: 65.2 IU/L
  BUN: 17 mg/dL
  CRE: 0.2 mg/dL
  Ca: 10.6 mg/dL
  Cl: 105.2 meq/L
  DBIL: 0.006 mg/dL
  GLC: 184.4 mg/dL
  IP: 6.5 mg/dL
  K: 3.8 meq/L
  LDH: 56.2 IU/L
  Na: 142 meq/L
  PL: 125.4 mg/dL
  RALB: 2.7 g/dL
  TBIL: 0.062 mg/dL
  TC: 63.2 mg/dL
  TG: 84.4 mg/dL
  TP: 6.1 g/dL
  gamma-GTP: 1 IU/L
[5]
  TERMINAL_BW: 230.5 g
  APTT: 16.8 s
  Bas: 0%
  Eos: 1.4%
  Fbg: 274.2 mg/dL
  Hb: 14.1 g/dL
  Ht: 42.6%
  Lym: 74.8%
  MCH: 20.7 pg
  MCHC: 33.1%
  MCV: 62.5 fL
  Mono: 2.8%
  Neu: 20.6%
  PT: 13.2 s
  Plat: 128.6 x10_4/uL
  RBC: 682.6 x10_4/ul
  Ret: 4.8%
  WBC: 104.1 x10_2/uL
  KIDNEY_L: 1 g
  KIDNEY_R: 1 g
  KIDNEY_TOTAL: 2 g
  LIVER: 11.1 g
  A/G: 0.8
  ALP: 1652 IU/L
  ALT: 49.2 IU/L
  AST: 62.4 IU/L
  BUN: 16.4 mg/dL
  CRE: 0.2 mg/dL
  Ca: 11.3 mg/dL
  Cl: 103.4 meq/L
  DBIL: 0.01 mg/dL
  GLC: 174.6 mg/dL
  IP: 8.3 mg/dL
  K: 4.5 meq/L
  LDH: 73.8 IU/L
  Na: 140 meq/L
  PL: 161 mg/dL
  RALB: 2.7 g/dL
  TBIL: 0.056 mg/dL
  TC: 82.2 mg/dL
  TG: 112 mg/dL
  TP: 5.7 g/dL
  gamma-GTP: 1 IU/L
[6]
  TERMINAL_BW: 262.7 g
  APTT: 17.8 s
  Bas: 0%
  Eos: 1.2%
  Fbg: 288 mg/dL
  Hb: 14 g/dL
  Ht: 42.2%
  Lym: 76.6%
  MCH: 20.8 pg
  MCHC: 33.3%
  MCV: 62.6 fL
  Mono: 3.2%
  Neu: 18.6%
  PT: 13.3 s
  Plat: 125.3 x10_4/uL
  RBC: 673.8 x10_4/ul
  Ret: 4.7%
  WBC: 87.1 x10_2/uL
  KIDNEY_L: 1.1 g
  KIDNEY_R: 1.2 g
  KIDNEY_TOTAL: 2.3 g
  LIVER: 11.9 g
  A/G: 0.9
  ALP: 1461.2 IU/L
  ALT: 55 IU/L
  AST: 74.2 IU/L
  BUN: 16.4 mg/dL
  CRE: 0.2 mg/dL
  Ca: 11 mg/dL
  Cl: 103.2 meq/L
  DBIL: 0.006 mg/dL
  GLC: 171.6 mg/dL
  IP: 8 mg/dL
  K: 4.3 meq/L
  LDH: 62 IU/L
  Na: 141 meq/L
  PL: 146 mg/dL
  RALB: 2.7 g/dL
  TBIL: 0.05 mg/dL
  TC: 72.6 mg/dL
  TG: 94 mg/dL
  TP: 5.7 g/dL
  gamma-GTP: 1 IU/L
[7]
  TERMINAL_BW: 307.6 g
  APTT: 16.8 s
  Bas: 0.2%
  Eos: 1%
  Fbg: 271 mg/dL
  Hb: 14.9 g/dL
  Ht: 44.3%
  Lym: 72.8%
  MCH: 20.1 pg
  MCHC: 33.6%
  MCV: 59.8 fL
  Mono: 2.2%
  Neu: 23%
  PT: 13.2 s
  Plat: 114.6 x10_4/uL
  RBC: 742 x10_4/ul
  Ret: 3.8%
  WBC: 103.9 x10_2/uL
  KIDNEY_L: 1.2 g
  KIDNEY_R: 1.2 g
  KIDNEY_TOTAL: 2.3 g
  LIVER: 12.6 g
  A/G: 0.9
  ALP: 1425.6 IU/L
  ALT: 41.8 IU/L
  AST: 68.2 IU/L
  BUN: 16.8 mg/dL
  CRE: 0.2 mg/dL
  Ca: 11 mg/dL
  Cl: 102.6 meq/L
  DBIL: 0.008 mg/dL
  GLC: 181 mg/dL
  IP: 7.9 mg/dL
  K: 3.9 meq/L
  LDH: 54 IU/L
  Na: 140.6 meq/L
  PL: 148.4 mg/dL
  RALB: 2.7 g/dL
  TBIL: 0.056 mg/dL
  TC: 80.8 mg/dL
  TG: 83.4 mg/dL
  TP: 5.9 g/dL
  gamma-GTP: 1 IU/L
[8]
  TERMINAL_BW: 370.8 g
  APTT: 17.8 s
  Bas: 0%
  Eos: 1.6%
  Fbg: 278.4 mg/dL
  Hb: 15.8 g/dL
  Ht: 45.5%
  Lym: 80%
  MCH: 19.3 pg
  MCHC: 34.7%
  MCV: 55.5 fL
  Mono: 2%
  Neu: 15%
  PT: 13.3 s
  Plat: 111.2 x10_4/uL
  RBC: 818.8 x10_4/ul
  Ret: 2.5%
  WBC: 133.5 x10_2/uL
  KIDNEY_L: 1.2 g
  KIDNEY_R: 1.3 g
  KIDNEY_TOTAL: 2.5 g
  LIVER: 13.4 g
  A/G: 0.8
  ALP: 1094.8 IU/L
  ALT: 42.6 IU/L
  AST: 70.4 IU/L
  BUN: 18 mg/dL
  CRE: 0.3 mg/dL
  Ca: 10.6 mg/dL
  Cl: 103 meq/L
  DBIL: 0.012 mg/dL
  GLC: 169 mg/dL
  IP: 7.2 mg/dL
  K: 3.9 meq/L
  LDH: 55.6 IU/L
  Na: 141.8 meq/L
  PL: 136.2 mg/dL
  RALB: 2.8 g/dL
  TBIL: 0.062 mg/dL
  TC: 66.2 mg/dL
  TG: 87.2 mg/dL
  TP: 6.3 g/dL
  gamma-GTP: 1 IU/L
